Legend:
[1] = cited from earlier work
[2] = In vitro release by dynamic dialysis method; format: physicochemical; conditions: dialysis bag control

| Molecule | Increase in oral bioavailability ([1]; fenofibrate in fast-dissolving solid dispersion formulation) | Enhancement of oral bioavailability ([1]; fenofibrate in liposomes containing sodium deoxycholate) | Time for complete diffusion of CyA in solution across the dialysis bag [2] |
| --- | --- | --- | --- |
| CC(C)OC(=O)C(C)(C)Oc1ccc(C(=O)c2ccc(Cl)cc2)cc1 [fenofibrate] | 4.4 fold | 5.13 fold | – |
| Cyclosporine A [CyA] | – | – | ≤ 1 h |

From paper PMC3124400 (International Journal of Nanomedicine, 2011)
